Columns and labels:
[1] = target: T1, peptidylglycine α-amidating monooxygenase (Rattus norvegicus, UniProt P14925); test: PAM treatment of hippurate: benzamide by HPLC, glyoxylate by malate synthase/malate dehydrogenase/MTS/PMS system; format: biochemical; settings: for Benzamide Produced / Glyoxylate Produced: PAM added to 2.5 mM hippurate
T1 sequence (P14925 36-976): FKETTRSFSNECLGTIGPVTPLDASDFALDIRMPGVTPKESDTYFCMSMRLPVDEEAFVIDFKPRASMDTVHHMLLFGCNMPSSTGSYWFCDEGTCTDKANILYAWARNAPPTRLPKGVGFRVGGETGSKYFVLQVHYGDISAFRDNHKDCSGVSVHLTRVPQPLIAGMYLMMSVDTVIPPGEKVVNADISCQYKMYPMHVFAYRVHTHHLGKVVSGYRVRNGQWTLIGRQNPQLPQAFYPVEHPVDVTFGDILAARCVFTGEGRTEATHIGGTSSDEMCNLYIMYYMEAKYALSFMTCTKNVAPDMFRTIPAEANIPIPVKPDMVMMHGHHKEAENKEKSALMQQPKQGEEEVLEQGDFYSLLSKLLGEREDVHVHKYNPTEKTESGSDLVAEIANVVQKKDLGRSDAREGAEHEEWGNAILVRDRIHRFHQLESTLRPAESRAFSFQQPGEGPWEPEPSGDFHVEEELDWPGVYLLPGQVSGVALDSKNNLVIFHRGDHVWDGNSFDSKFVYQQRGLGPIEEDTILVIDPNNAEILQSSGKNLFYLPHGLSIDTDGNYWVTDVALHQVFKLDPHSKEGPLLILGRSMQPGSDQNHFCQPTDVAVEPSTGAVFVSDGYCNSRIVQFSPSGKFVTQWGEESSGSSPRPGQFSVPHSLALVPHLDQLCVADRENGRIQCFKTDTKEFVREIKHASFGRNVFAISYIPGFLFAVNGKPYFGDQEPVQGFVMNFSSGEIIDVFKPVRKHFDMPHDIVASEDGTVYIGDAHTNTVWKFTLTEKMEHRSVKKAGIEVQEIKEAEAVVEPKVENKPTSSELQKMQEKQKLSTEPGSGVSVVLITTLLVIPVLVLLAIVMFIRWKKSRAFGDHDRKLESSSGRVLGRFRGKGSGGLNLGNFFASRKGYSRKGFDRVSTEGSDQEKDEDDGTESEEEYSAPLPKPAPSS
Description: Hippurate (N-benzoylglycine, C6H5-CO—NH—CH2-COO^−) is a PAM substrate that is oxidatively converted to benzamide and glyoxylate. […] At 10 min intervals over a period of 110 minutes, 45 μl aliquots may be removed and added to 10 μl of 6% (v/v) trifluoroacetic acid to terminate the reaction. Percent conversion of hippurate to benzamide may be determined at each time interval by reverse-phase HPLC.
Approximately 20 nanomoles of glyoxylate may be removed from the HPLC vials and added to a 0.9 ml solution that contain necessary components for the glyoxylate assay excluding the enzyme couple and MTS/PMS. Ascorbate may be eliminated from all samples, prior to glyoxylate determination, with 10 min incubation in the presence of 12 units of ascorbate oxidase at 37° C. Following ascorbate removal the addition of 100 μl enzyme couple and PMS/MTS may bring the assay to a final volume of 1 ml which contains 100 mM TEA-HC1 pH 7.8, 10 MM MgCl2, 400 μM acetyl-CoA, 500 μM NAD^+, 6 U/ml malate synthase, 6 U/ml malate dehydrogenase, and 12 units ascorbate oxidase. The glyoxylate concentration may be determined by measuring the absorbance increase at 490 nm after incubation at 37° C. for 1 hr. A control for this experiment was performed at each time point, and contained no hippurate.

[2] = target: T2, Glyoxal oxidase (Phanerodontia chrysosporium, UniProt Q01772); test: Effect of PAM reductant on glyoxal oxidase activity and glyoxylate assays; format: biochemical; design: Dr. James Whittaker, OGI School of Science and Engineering (gift); settings: reductant for PAM catalysis
T2 sequence (Q01772 23-559): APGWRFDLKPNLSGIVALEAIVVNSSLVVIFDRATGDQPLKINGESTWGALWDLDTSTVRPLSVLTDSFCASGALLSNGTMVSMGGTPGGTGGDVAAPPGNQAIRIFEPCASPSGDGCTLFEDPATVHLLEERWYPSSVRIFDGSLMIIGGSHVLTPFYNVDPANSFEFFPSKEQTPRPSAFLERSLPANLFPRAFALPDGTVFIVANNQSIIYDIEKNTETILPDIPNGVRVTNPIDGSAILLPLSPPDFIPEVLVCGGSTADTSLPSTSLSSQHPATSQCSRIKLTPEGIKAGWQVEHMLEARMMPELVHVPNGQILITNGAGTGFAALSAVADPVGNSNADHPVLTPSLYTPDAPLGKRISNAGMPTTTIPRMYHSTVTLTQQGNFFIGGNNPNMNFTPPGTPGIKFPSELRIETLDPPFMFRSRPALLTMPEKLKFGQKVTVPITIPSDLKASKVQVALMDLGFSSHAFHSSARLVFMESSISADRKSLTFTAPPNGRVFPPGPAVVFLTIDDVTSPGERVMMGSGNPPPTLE
Source text: Application of the assays of the invention to the quantification of PAM-produced glyoxylate required two alterations of the PAM assay, as well as one change to the common glycolate oxidase assay which has previously been mentioned. Without these specific alterations the assays would be rendered non-stoichiometric and produce anomalous data. First, to address the changes to the PAM assay, a new method for enzyme protection due to hydroxyl radical formation produced during catalysis was necessary as the use of catalase has previously been the method of choice. Catalase catalyzes the disproportionate reaction of H2O2 to H2O and O2, and removal of hydrogen peroxide is detrimental to the assay methods. […] Second, a reducing agent is necessary for the PAM catalysis. Ascorbate is frequently used in the art for this purpose. […] As an alternative to the foregoing, ascorbate may be used in the PAM-catalyzed reaction, but later removed (e.g., by deactivating with ascorbate oxidase) prior to assaying for glyoxylate.

[3] = target: T3, PAM (Rattus norvegicus, UniProt P14925); test: PAM dependent conversion of N-dansyl-Tyr-Val-Gly verified by RP-HPLC; format: biochemical; settings: 20 μM substrate, PAM 15 U/L, 1.0 mM catechol, one hour at 37° C.
T3 construct: Unigene Labs, Inc. (Fairfield, N.J.), gift
T3 sequence (P14925 36-715 isoform P14925-2 limits assumed): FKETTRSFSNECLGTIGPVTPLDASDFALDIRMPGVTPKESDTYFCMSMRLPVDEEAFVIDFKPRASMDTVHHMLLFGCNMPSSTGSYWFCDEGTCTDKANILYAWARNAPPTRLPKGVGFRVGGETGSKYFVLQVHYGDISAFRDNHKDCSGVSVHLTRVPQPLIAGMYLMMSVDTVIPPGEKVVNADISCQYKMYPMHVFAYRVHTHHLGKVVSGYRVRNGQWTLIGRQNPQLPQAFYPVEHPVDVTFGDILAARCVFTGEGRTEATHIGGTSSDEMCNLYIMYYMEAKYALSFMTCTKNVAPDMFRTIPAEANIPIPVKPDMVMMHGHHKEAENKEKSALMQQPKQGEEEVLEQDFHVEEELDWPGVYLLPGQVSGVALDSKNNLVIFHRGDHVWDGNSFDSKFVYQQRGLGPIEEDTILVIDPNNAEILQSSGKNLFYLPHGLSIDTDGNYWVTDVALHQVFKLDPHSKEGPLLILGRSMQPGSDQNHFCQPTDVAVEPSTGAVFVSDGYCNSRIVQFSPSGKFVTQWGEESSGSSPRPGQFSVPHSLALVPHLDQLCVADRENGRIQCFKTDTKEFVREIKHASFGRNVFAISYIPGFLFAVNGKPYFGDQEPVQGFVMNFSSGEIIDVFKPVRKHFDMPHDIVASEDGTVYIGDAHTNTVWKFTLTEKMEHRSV
Description: Glyoxylate production was initiated by the addition of PAM (15 U/L) to a solution containing 40 mM MES/NaOH pH 6.0, 10 U/ml HRP, 1.0 mM catechol, 0.5 μM CU(SO4), 20 μM dansyl-Tyr-Val-Gly, the reaction proceeded for one hour at 37° C. […] The complete PAM dependent conversion of 20 μM N-dansyl-Tyr-Val-Gly to N-dansyl-Tyr-Val-NH2 and glyoxylate was verified by RP-HPLC to quantify the exact concentrations of [dansyl-Tyr-Val-NH2] and [glyoxylate] (100% conversion, 20 μM N-dansyl-Tyr-Val-NH2 and glyoxylate). Aliquots of the PAM produced glyoxylate pertaining to variable concentrations (0.3, 0.7, 1.6, and 2.3, μM) of were utilized for analysis by the GLOX assay. Aliquots of glyoxylate were added to a solution of 50 mM sodium phosphate pH 6.0, 50 μM Amplex red, at HRP (1 U/ml) and a final concentration of 0.4 mg/ml GLOX. All samples were incubated for 1 hour at 37° C. for one hour.
Glyoxylate production was initiated by the addition of PAM (15 U/L) to a solution containing 40 mM MES/NaOH pH 6.0, 10 U/ml HRP, 1.0 mM catechol, 0.5 μM Cu(SO4), 20 μM dansyl-Tyr-Val-Gly, the reaction proceeded for one hour at 37° C. The PAM dependent conversion of 20 μM N-dansyl-Tyr-Val-Gly to N-dansyl-Tyr-Val-NH2 and glyoxylate was verified to be 100% by a RP-HPLC assay, to ensure a 20 μM PAM produced glyoxylate solution. […]

[4] = target: T2, Glyoxal oxidase; settings: cited from earlier work

O=C(O)CNC(=O)c1ccccc1 [hippurate, N-benzoylglycine]
[Glyoxylate]/[Benzamide] ([1]; Time 40): 1.2
Benzamide Produced ([1]; Time 40): 0.58 mM
Glyoxylate Produced ([1]; Time 40): 0.69 mM
[Glyoxylate]/[Benzamide] ([1]; Time 50): 0.96
Benzamide Produced ([1]; Time 50): 0.70 mM
Glyoxylate Produced ([1]; Time 50): 0.67 mM
[Glyoxylate]/[Benzamide] ([1]; Time 60): 0.89
Benzamide Produced ([1]; Time 60): 0.80 mM
Glyoxylate Produced ([1]; Time 60): 0.71 mM
[Glyoxylate]/[Benzamide] ([1]; Time 70): 0.83
Benzamide Produced ([1]; Time 70): 0.90 mM
Glyoxylate Produced ([1]; Time 70): 0.75 mM
[Glyoxylate]/[Benzamide] ([1]; Time 80): 0.79
Benzamide Produced ([1]; Time 80): 0.98 mM
Glyoxylate Produced ([1]; Time 80): 0.77 mM
[Glyoxylate]/[Benzamide] ([1]; Time 90): 1.2
Benzamide Produced ([1]; Time 90): 1.1 mM
Glyoxylate Produced ([1]; Time 90): 1.3 mM
[Glyoxylate]/[Benzamide] ([1]; Time 100): 1.1
Benzamide Produced ([1]; Time 100): 1.2 mM
Glyoxylate Produced ([1]; Time 100): 1.3 mM
[Glyoxylate]/[Benzamide] ([1]; Time 110): 1.0
Benzamide Produced ([1]; Time 110): 1.3 mM
Glyoxylate Produced ([1]; Time 110): 1.3 mM

Oc1ccccc1O [catechol]
inhibition of the enzyme activity of glyoxal oxidase and of the spectrophotometric, fluorescent and luminescent assays [2]: not an inhibitor

N-dansyl-Tyr-Val-Gly
PAM dependent conversion to N-dansyl-Tyr-Val-NH2 and glyoxylate [3]: 100%

O=CC(=O)O [glyoxylic acid]
Km [4]: 2500 µM
kcat/KM ratio, activity compared to methylglyoxal [4]: 12.4%

CC(=O)C=O [Methylglyoxal]
Km [4]: 640 µM
